Assay results reported in ChEMBL document CHEMBL5724914, “Linking interpersonal differences in gut microbiota composition and drug biotransformation activity” (2024).

Details: human gut metagenome, 24 h, 2 µM
Also: call rule not given here.

Row | Bacterial Biotransformation | SMILES
1 | Compound metabolized | CC(C)c1c(C(=O)Nc2ccccc2)c(-c2ccccc2)c(-c2ccc(F)cc2)n1CC[C@@H](O)C[C@@H](O)CC(=O)O [ATORVASTATIN]
2 | Compound NOT metabolized | Cc1cn([C@H]2C[C@H](N=[N+]=[N-])[C@@H](CO)O2)c(=O)[nH]c1=O [ZIDOVUDINE]

Assay: (§1) The drug is tested on WLS-310 corresponding to human gut metagenome with ENA study accession number: PRJEB37062 and ENA sample accession number: ERS12561785 for biotransformation under anaerobic condition. The drug concentrations were measured over 9 timepoints collected between 0 and 24 hours of incubation by liquid-chromatography-coupled mass spectrometry (LC–MS)
Details: 2 µM

Row | Bacterial Biotransformation | SMILES
3 | Compound metabolized | CC(C)c1c(C(=O)Nc2ccccc2)c(-c2ccccc2)c(-c2ccc(F)cc2)n1CC[C@@H](O)C[C@@H](O)CC(=O)O [ATORVASTATIN]
4 | Compound NOT metabolized | Cc1cn([C@H]2C[C@H](N=[N+]=[N-])[C@@H](CO)O2)c(=O)[nH]c1=O [ZIDOVUDINE]

Details: human gut metagenome, 24 h, 2 µM
Remark: another data set of the same source

Row | Bacterial Biotransformation | SMILES
5 | Compound metabolized | CC(C)c1c(C(=O)Nc2ccccc2)c(-c2ccccc2)c(-c2ccc(F)cc2)n1CC[C@@H](O)C[C@@H](O)CC(=O)O [ATORVASTATIN]
6 | Compound NOT metabolized | Cc1cn([C@H]2C[C@H](N=[N+]=[N-])[C@@H](CO)O2)c(=O)[nH]c1=O [ZIDOVUDINE]

Assay: as §1, with “Z-025” for “WLS-310”, “rabbit” for “human”, “ERS12561824” for “ERS12561785”
Details: 2 µM

Row | Bacterial Biotransformation | SMILES
7 | Compound NOT metabolized | CC(C)c1c(C(=O)Nc2ccccc2)c(-c2ccccc2)c(-c2ccc(F)cc2)n1CC[C@@H](O)C[C@@H](O)CC(=O)O [ATORVASTATIN]
8 | Compound metabolized | Cc1cn([C@H]2C[C@H](N=[N+]=[N-])[C@@H](CO)O2)c(=O)[nH]c1=O [ZIDOVUDINE]

Details: human gut metagenome, 24 h, 2 µM
Remark: another data set of the same source

Row | Bacterial Biotransformation | SMILES
9 | Compound metabolized | CC(C)c1c(C(=O)Nc2ccccc2)c(-c2ccccc2)c(-c2ccc(F)cc2)n1CC[C@@H](O)C[C@@H](O)CC(=O)O [ATORVASTATIN]
10 | Compound NOT metabolized | Cc1cn([C@H]2C[C@H](N=[N+]=[N-])[C@@H](CO)O2)c(=O)[nH]c1=O [ZIDOVUDINE]

Assay: as §1, with “Z-016” for “WLS-310”, “mouse” for “human”, “ERS12561815” for “ERS12561785”
Details: 2 µM

Row | Bacterial Biotransformation | SMILES
11 | Compound NOT metabolized | CC(C)c1c(C(=O)Nc2ccccc2)c(-c2ccccc2)c(-c2ccc(F)cc2)n1CC[C@@H](O)C[C@@H](O)CC(=O)O [ATORVASTATIN]
12 | Compound NOT metabolized | Cc1cn([C@H]2C[C@H](N=[N+]=[N-])[C@@H](CO)O2)c(=O)[nH]c1=O [ZIDOVUDINE]

Details: human gut metagenome, 24 h, 2 µM
Remark: another data set of the same source

Row | Bacterial Biotransformation | SMILES
13 | Compound metabolized | CC(C)c1c(C(=O)Nc2ccccc2)c(-c2ccccc2)c(-c2ccc(F)cc2)n1CC[C@@H](O)C[C@@H](O)CC(=O)O [ATORVASTATIN]
14 | Compound metabolized | Cc1cn([C@H]2C[C@H](N=[N+]=[N-])[C@@H](CO)O2)c(=O)[nH]c1=O [ZIDOVUDINE]

Assay: as §1, with “Z-030” for “WLS-310”, “mouse” for “human”, “ERS12561829” for “ERS12561785”
Details: 2 µM

Row | Bacterial Biotransformation | SMILES
15 | Compound NOT metabolized | CC(C)c1c(C(=O)Nc2ccccc2)c(-c2ccccc2)c(-c2ccc(F)cc2)n1CC[C@@H](O)C[C@@H](O)CC(=O)O [ATORVASTATIN]
16 | Compound metabolized | Cc1cn([C@H]2C[C@H](N=[N+]=[N-])[C@@H](CO)O2)c(=O)[nH]c1=O [ZIDOVUDINE]

Assay: as §1, with “Z-014” for “WLS-310”, “rat” for “human”, “ERS12561814” for “ERS12561785”
Details: 2 µM

Row | Bacterial Biotransformation | SMILES
17 | Compound NOT metabolized | CC(C)c1c(C(=O)Nc2ccccc2)c(-c2ccccc2)c(-c2ccc(F)cc2)n1CC[C@@H](O)C[C@@H](O)CC(=O)O [ATORVASTATIN]
18 | Compound NOT metabolized | Cc1cn([C@H]2C[C@H](N=[N+]=[N-])[C@@H](CO)O2)c(=O)[nH]c1=O [ZIDOVUDINE]

Assay: as §1, with “Z-019” for “WLS-310”, “rat” for “human”, “ERS12561818” for “ERS12561785”
Details: 2 µM

Row | Bacterial Biotransformation | SMILES
19 | Compound NOT metabolized | CC(C)c1c(C(=O)Nc2ccccc2)c(-c2ccccc2)c(-c2ccc(F)cc2)n1CC[C@@H](O)C[C@@H](O)CC(=O)O [ATORVASTATIN]
20 | Compound metabolized | Cc1cn([C@H]2C[C@H](N=[N+]=[N-])[C@@H](CO)O2)c(=O)[nH]c1=O [ZIDOVUDINE]

Assay: as §1, with “Z-018” for “WLS-310”, “pig” for “human”, “ERS12561817” for “ERS12561785”
Details: 2 µM

Row | Bacterial Biotransformation | SMILES
21 | Compound NOT metabolized | CC(C)c1c(C(=O)Nc2ccccc2)c(-c2ccccc2)c(-c2ccc(F)cc2)n1CC[C@@H](O)C[C@@H](O)CC(=O)O [ATORVASTATIN]
22 | Compound NOT metabolized | Cc1cn([C@H]2C[C@H](N=[N+]=[N-])[C@@H](CO)O2)c(=O)[nH]c1=O [ZIDOVUDINE]

Details: human gut metagenome, 24 h, 2 µM
Remark: another data set of the same source

Row | Bacterial Biotransformation | SMILES
23 | Compound metabolized | CC(C)c1c(C(=O)Nc2ccccc2)c(-c2ccccc2)c(-c2ccc(F)cc2)n1CC[C@@H](O)C[C@@H](O)CC(=O)O [ATORVASTATIN]
24 | Compound NOT metabolized | Cc1cn([C@H]2C[C@H](N=[N+]=[N-])[C@@H](CO)O2)c(=O)[nH]c1=O [ZIDOVUDINE]

Details: human gut metagenome, 24 h, 2 µM
Remark: another data set of the same source

Row | Bacterial Biotransformation | SMILES
25 | Compound NOT metabolized | CC(C)c1c(C(=O)Nc2ccccc2)c(-c2ccccc2)c(-c2ccc(F)cc2)n1CC[C@@H](O)C[C@@H](O)CC(=O)O [ATORVASTATIN]
26 | Compound NOT metabolized | Cc1cn([C@H]2C[C@H](N=[N+]=[N-])[C@@H](CO)O2)c(=O)[nH]c1=O [ZIDOVUDINE]

Details: human gut metagenome, 24 h, 2 µM
Remark: another data set of the same source

Row | Bacterial Biotransformation | SMILES
27 | Compound metabolized | CC(C)c1c(C(=O)Nc2ccccc2)c(-c2ccccc2)c(-c2ccc(F)cc2)n1CC[C@@H](O)C[C@@H](O)CC(=O)O [ATORVASTATIN]
28 | Compound NOT metabolized | Cc1cn([C@H]2C[C@H](N=[N+]=[N-])[C@@H](CO)O2)c(=O)[nH]c1=O [ZIDOVUDINE]

Assay: as §1, with “Z-023” for “WLS-310”, “to” for “to human gut”, “ERS12561822” for “ERS12561785”
Details: 2 µM

Row | Bacterial Biotransformation | SMILES
29 | Compound NOT metabolized | CC(C)c1c(C(=O)Nc2ccccc2)c(-c2ccccc2)c(-c2ccc(F)cc2)n1CC[C@@H](O)C[C@@H](O)CC(=O)O [ATORVASTATIN]
30 | Compound NOT metabolized | Cc1cn([C@H]2C[C@H](N=[N+]=[N-])[C@@H](CO)O2)c(=O)[nH]c1=O [ZIDOVUDINE]

Assay: as §1, with “WLS-086” for “WLS-310”, “ERS12561752” for “ERS12561785”
Details: 2 µM

Row | Bacterial Biotransformation | SMILES
31 | Compound metabolized | CC(C)c1c(C(=O)Nc2ccccc2)c(-c2ccccc2)c(-c2ccc(F)cc2)n1CC[C@@H](O)C[C@@H](O)CC(=O)O [ATORVASTATIN]
32 | Compound NOT metabolized | Cc1cn([C@H]2C[C@H](N=[N+]=[N-])[C@@H](CO)O2)c(=O)[nH]c1=O [ZIDOVUDINE]

Details: human gut metagenome, 24 h, 2 µM
Remark: another data set of the same source

Row | Bacterial Biotransformation | SMILES
33 | Compound metabolized | CC(C)c1c(C(=O)Nc2ccccc2)c(-c2ccccc2)c(-c2ccc(F)cc2)n1CC[C@@H](O)C[C@@H](O)CC(=O)O [ATORVASTATIN]
34 | Compound NOT metabolized | Cc1cn([C@H]2C[C@H](N=[N+]=[N-])[C@@H](CO)O2)c(=O)[nH]c1=O [ZIDOVUDINE]

Details: human gut metagenome, 24 h, 2 µM
Remark: another data set of the same source

Row | Bacterial Biotransformation | SMILES
35 | Compound NOT metabolized | CC(C)c1c(C(=O)Nc2ccccc2)c(-c2ccccc2)c(-c2ccc(F)cc2)n1CC[C@@H](O)C[C@@H](O)CC(=O)O [ATORVASTATIN]
36 | Compound NOT metabolized | Cc1cn([C@H]2C[C@H](N=[N+]=[N-])[C@@H](CO)O2)c(=O)[nH]c1=O [ZIDOVUDINE]

Details: human gut metagenome, 24 h, 2 µM
Remark: another data set of the same source

Row | Bacterial Biotransformation | SMILES
37 | Compound metabolized | CC(C)c1c(C(=O)Nc2ccccc2)c(-c2ccccc2)c(-c2ccc(F)cc2)n1CC[C@@H](O)C[C@@H](O)CC(=O)O [ATORVASTATIN]
38 | Compound NOT metabolized | Cc1cn([C@H]2C[C@H](N=[N+]=[N-])[C@@H](CO)O2)c(=O)[nH]c1=O [ZIDOVUDINE]

Details: human gut metagenome, 24 h, 2 µM
Remark: another data set of the same source

Row | Bacterial Biotransformation | SMILES
39 | Compound metabolized | CC(C)c1c(C(=O)Nc2ccccc2)c(-c2ccccc2)c(-c2ccc(F)cc2)n1CC[C@@H](O)C[C@@H](O)CC(=O)O [ATORVASTATIN]
40 | Compound NOT metabolized | Cc1cn([C@H]2C[C@H](N=[N+]=[N-])[C@@H](CO)O2)c(=O)[nH]c1=O [ZIDOVUDINE]
